Results published in PMC3481155, “AhR activation underlies the CYP1A autoinduction by A-998679 in rats” (Frontiers in Genetics, 2012).

Legend:
[1] = system: multidrug resistance-associated protein (Mrp3); assay: Mrp3 expression in rat liver; assay type: in vivo; settings: treated rats; data not shown
Procedure: All animal experiments were conducted in accordance with the Guiding Principles in the Use of Animals in Toxicology (http://www.toxicology.org/ai/air/air6.asp) and were approved by Abbott's Institutional Animal Care and Use Committee (IACUC). Male Sprague-Dawley rats [Crl:CD®(SD)IGS BR], weighing ~250 g at study initiation were obtained from Charles River Laboratories, Inc. (Wilmington, MA). Rats were housed singly in ventilated, stainless steel, wire-bottom hanging cages and fed non-certified Rodent Chow (Harlan Labs, Madison, WI), and water ad libitum and acclimated for at least 5 days after arrival. […] Serum clinical chemistry parameters were quantified using an Aeroset Clinical Chemistry Analyzer (Abbott Laboratories, Abbott Park, IL) and included alanine amino transferase (ALT), aspartate amino transferase (AST), gamma glutamyltransferase (GGT), and alkaline phosphatase (ALP) activities.
Frozen liver or jejunum were immediately added to 4 ml of TRIzol reagent (Invitrogen Life Technologies) and homogenized using a Polytron 300D homogenizer (Brinkman Instruments, Westbury, NY). […] Nucleic acid concentration was determined by OD 260 nm (Smart-Spec, Bio-Rad Laboratories, Hercules, CA), and RNA integrity was evaluated using an Agilent 2100 bioanalyzer (Agilent Technologies, Foster City, CA). […]

CYP2C9 = biological target: T1, CYP2C9 (Homo sapiens, UniProt P11712); assay: CYP inhibition evaluation in human liver microsomes, CYP2C9 (diclofenac); assay type: in vitro ADME; settings: probe substrate diclofenac
T1 construct: from tissue; host or cells: human liver microsomes
T1 sequence (P11712 whole entry): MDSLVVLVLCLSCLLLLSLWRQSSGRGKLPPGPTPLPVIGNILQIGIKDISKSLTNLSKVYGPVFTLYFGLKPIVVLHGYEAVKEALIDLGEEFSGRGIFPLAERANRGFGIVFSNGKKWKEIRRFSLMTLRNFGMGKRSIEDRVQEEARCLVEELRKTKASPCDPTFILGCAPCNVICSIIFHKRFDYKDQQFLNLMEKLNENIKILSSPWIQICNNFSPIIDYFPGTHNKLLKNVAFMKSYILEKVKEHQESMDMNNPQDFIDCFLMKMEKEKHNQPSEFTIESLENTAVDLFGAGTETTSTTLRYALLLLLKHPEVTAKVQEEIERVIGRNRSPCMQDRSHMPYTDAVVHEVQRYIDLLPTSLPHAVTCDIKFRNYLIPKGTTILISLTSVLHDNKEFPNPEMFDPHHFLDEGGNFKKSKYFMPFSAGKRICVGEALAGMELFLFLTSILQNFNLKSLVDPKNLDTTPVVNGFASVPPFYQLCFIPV
Procedure: Incubations were performed in human liver microsomes using probe substrate concentrations similar to their corresponding Km values. Enzyme activity was evaluated in the presence of various concentrations of A-998679. The incubations consisted of the test article at varying concentrations (0–30 μM), probe substrate (concentration ~Km, see Table A2), human liver microsomal protein and 1 mM NADPH in 50 mM phosphate buffer at pH 7.4. Relative quantitation of the metabolites was obtained by LC-MS/MS using an ABSciex (Foster City, CA) API3000 or API4000 Qtrap hybrid linear ion trap mass spectrometer equipped with a TurboIonspray source using either PerkinElmer series 200 pumps or Agilent 1100 series pump with a Leap autosampler. Analytes were separated using a Phenomenex Prodigy ODS(3) 5 μm, 50 × 2.0 mm column at 50°C, eluted and detected under the specific conditions listed in Tables A3, A4, and A5. The analyte to internal standard peak area ratios were determined using Analyst 1.4 software (Applied Biosytems, Carlsbad, CA). The peak area ratios observed in the presence of test article were compared to the vehicle control in order to determine percent activity. To determine the IC50, the data were plotted as Log [dose] μM vs. % inhibition, and analyzed with a sigmoidal dose-response (variable slope) fitting equation. […]

N#Cc1cccc(-c2noc(-c3cccnc3)n2)c1 [A-998679, 3-(5-pyridin-3-yl-1,2,4-oxadiazol-3-yl) benzonitrile]
expression of Mrp3 in liver [1]: increased expression
IC50 (CYP2C9): > 30 µM
